Activity calls are given as the source filed them. The calls are words filed in the database; no cut-off is given here.
What was measured:
[1] = system: Trypanosoma brucei rhodesiense; assay: […] activity against Trypanosoma brucei rhodesiense Wellcome CT infected in ICR/HA mouse assessed as curated mouse at 26.5 mg/kg, po treated within 2 hrs of parasite infection measured up to 30 days; type: functional, organism-based; parameters: dose 26.5 mg/kg
[2] = system: Trypanosoma brucei rhodesiense; assay: […] activity against Trypanosoma brucei rhodesiense Wellcome CT infected in ICR/HA mouse assessed as curated mouse at 106 mg/kg, po treated within 2 hrs of parasite infection measured up to 30 days; type: functional, organism-based; parameters: dose 106 mg/kg
Mus musculus [3] = assay: Toxicity in Trypanosoma rhodesiense Wellcome CT infected ICR/HA mouse assessed as mortality at 106 mg/kg, sc treated within 2 hrs of parasite infection measured up to 30 days; type: organism-based; parameters: dose 106 mg/kg, route subcutaneous; settings: in vivo
[4] = system: Trypanosoma brucei rhodesiense; assay: […] activity against Trypanosoma brucei rhodesiense Wellcome CT infected in ICR/HA mouse assessed as curated mouse at 212 mg/kg, po treated within 2 hrs of parasite infection measured up to 30 days; type: functional, organism-based; parameters: dose 212 mg/kg
[5] = system: Trypanosoma brucei rhodesiense; assay: […] activity against Trypanosoma brucei rhodesiense Wellcome CT infected in ICR/HA mouse assessed as curated mouse at 13.3 mg/kg, po treated within 2 hrs of parasite infection measured up to 30 days; type: functional, organism-based; parameters: dose 13.3 mg/kg
Mus musculus [6] = assay: Toxicity in Trypanosoma brucei rhodesiense Wellcome CT infected ICR/HA mouse assessed as mortality at 424 mg/kg, po treated within 2 hrs of parasite infection measured up to 30 days; type: organism-based; parameters: dose 424 mg/kg, route oral; settings: in vivo
Mus musculus [7] = assay: Toxicity in Trypanosoma brucei rhodesiense Wellcome CT infected ICR/HA mouse assessed as mortality at 424 mg/kg, sc treated within 2 hrs of parasite infection measured up to 30 days; type: organism-based; parameters: dose 424 mg/kg, route subcutaneous; settings: in vivo
Mus musculus [8] = assay: Toxicity in Trypanosoma brucei rhodesiense Wellcome CT infected ICR/HA mouse assessed as mortality at 212 mg/kg, po treated within 2 hrs of parasite infection measured up to 30 days; type: organism-based; parameters: dose 212 mg/kg, route oral; settings: in vivo
[9] = system: Trypanosoma brucei rhodesiense; assay: […] activity against Trypanosoma brucei rhodesiense Wellcome CT infected in ICR/HA mouse assessed as curated mouse at 424 mg/kg, po treated within 2 hrs of parasite infection measured up to 30 days; type: functional, organism-based; parameters: dose 424 mg/kg
[10] = system: Trypanosoma brucei rhodesiense; assay: […] activity against Trypanosoma brucei rhodesiense Wellcome CT infected in ICR/HA mouse assessed as curated mouse at 53 mg/kg, po treated within 2 hrs of parasite infection measured up to 30 days; type: functional, organism-based; parameters: dose 53 mg/kg
[11] = system: Trypanosoma brucei rhodesiense; assay: […] activity against Trypanosoma brucei rhodesiense Wellcome CT infected in ICR/HA mouse assessed as curated mouse at 26.5 mg/kg, sc treated within 2 hrs of parasite infection measured up to 30 days; type: functional
[12] = system: Trypanosoma brucei rhodesiense; assay: […] activity against Trypanosoma brucei rhodesiense Wellcome CT infected in ICR/HA mouse assessed as curated mouse at 13.3 mg/kg, sc treated within 2 hrs of parasite infection measured up to 30 days; type: functional, organism-based; parameters: dose 13.3 mg/kg
[13] = system: Trypanosoma brucei rhodesiense; assay: […] activity against Trypanosoma brucei rhodesiense Wellcome CT infected in ICR/HA mouse assessed as curated mouse at 424 mg/kg, sc treated within 2 hrs of parasite infection measured up to 30 days; type: functional, organism-based; parameters: dose 424 mg/kg
[14] = system: Trypanosoma brucei rhodesiense; assay: […] activity against Trypanosoma brucei rhodesiense Wellcome CT infected in ICR/HA mouse assessed as curated mouse at 212 mg/kg, sc treated within 2 hrs of parasite infection measured up to 30 days; type: functional, organism-based; parameters: dose 212 mg/kg
[15] = system: Trypanosoma brucei rhodesiense; assay: […] activity against Trypanosoma brucei rhodesiense Wellcome CT infected in ICR/HA mouse assessed as curated mouse at 53 mg/kg, sc treated within 2 hrs of parasite infection measured up to 30 days; type: functional, organism-based; parameters: dose 53 mg/kg
[16] = system: Trypanosoma brucei rhodesiense; assay: […] activity against Trypanosoma brucei rhodesiense Wellcome CT infected in ICR/HA mouse assessed as curated mouse at 106 mg/kg, sc treated within 2 hrs of parasite infection measured up to 30 days; type: functional, organism-based; parameters: dose 106 mg/kg
[17] = system: Trypanosoma brucei rhodesiense; assay: […] activity against Trypanosoma brucei rhodesiense Wellcome CT infected in ICR/HA mouse assessed as curated mouse at 6.5 mg/kg, po treated within 2 hrs of parasite infection measured up to 30 days; type: functional, organism-based; parameters: dose 6.5 mg/kg

Structure (SMILES)	Activity [1]	Activity [2]	Activity (Mus musculus [3])	Activity [4]	Activity [5]	Activity (Mus musculus [6])	Activity (Mus musculus [7])	Activity (Mus musculus [8])	Activity [9]	Activity [10]	Activity [11]	Activity [12]	Activity [13]	Activity [14]	Activity [15]	Activity [16]	Activity [17]	Activity ([11]; route subcutaneous)
FC(F)(F)c1ccc(C[P+](c2ccccc2)(c2ccccc2)c2ccccc2)cc1.[Cl-]	inactive	inactive	Toxic	inactive	inactive	Toxic	Toxic	Toxic	inactive	inactive	inactive	inactive	inactive					
N=C(N)c1ccc(/C=C/c2ccc(C(=N)N)cc2)cc1 [STILBAMIDINE]		Active		Active					Active	Active		Active	Active	Active	Active	Active	inactive	98%
